From patent US20160058806A1, “METHOD FOR STIMULATING INTESTINAL BARRIER INTEGRITY AFTER NON-NATURAL BIRTH” (N.V. Nutricia, priority 2005, published 2016)

Experiments:
[1] = test system: intestinal epithelial cell lines T84; assay: Effect of LC-PUFA on spontaneous barrier integrity of T84 monolayers (TER and 4 kD FITC dextran flux); type: cell-based; conditions: result in words
Method: (§1) Monolayers (MC) of intestinal epithelial cell lines T84 were incubated in the luminal compartment with different 100 μM polyunsaturated fatty acids ARA (arachidonic acid; 5,8,11,14-eicosatetraenoic acid), DHA (cis-4,7,10,13,16,19 docosahexaenoic acid), EPA (eicosapentaenoic acid) or control palmiiic (C 16:0) acid (Palm) (Sigma, St. Louis, USA) for 0, 24, 48 and 72 hr. The epithelial barrier function was determined by measuring the transepithelial resistance (TER, Ωcm^2) by epithelial volt-ohm meter (EVOM; World Precision Instruments, Germany) and permeability for 4 kD FITC dextran (paracellular permeability marker, Sigma, USA).

[2] = test system: intestinal epithelial cell lines T84; assay: Effect of LC-PUFA on IL-4 mediated barrier disruption of T84 monolayers (TER and permeability); type: cell-based; conditions: IL-4 2 ng/ml; fatty acid 100 μM, mucosal compartment; 48 hr pre-incubation + 48 hr co-incubation
Method: as §1
Monolayers (MC) of intestinal epithelial cell lines T84 were incubated in the presence of IL-4 (2 ng/ml, scrosal compartment, Sigma, USA) with or without polyunsaturated fatty acids ARA, DHA, GLA, EPA, or control palmitic acid (10 μM or 100 μM, mucosal compartment, Sigma, St. Louis, USA). Cells were pre-incubated with ARA, DHA, EPA, or palmitic acid for 48 hr prior to the IL-4 incubation. The co-incubation of PUFA's and palmitic acid with IL-4 was continued for another 48 hr, while culture medium and additives were changed every 24 hr. The epithelial barrier function was determined by measuring the transepithelial resistance (TER) and permeability as described in example 2.

| Structure (SMILES) | effect on basal barrier integrity resistance and flux [1] | IL-4 Flux [2] | IL-4 TER [2] |
| --- | --- | --- | --- |
| CCCCC/C=C\C/C=C\C/C=C\CCCCC(=O)O [GLA, gamma-linolenic acid] | positive effect | – | – |
| CCCCCCCCCCCCCCCC(=O)O [Palmitic acid, palmitic acid, reference compound] | – | 777 | 321 |
| CCCCCC=CCC=CCC=CCC=CCCCC(=O)O [ARA, 5,8,11,14-eicosatetraenoic acid] | – | 218 | 636 |
| CC/C=C\C/C=C\C/C=C\C/C=C\C/C=C\CCCC(=O)O [EPA, eicosapentaenoic acid] | – | 228 | 539 |
